Where two headings read alike, the source gives them in different places.
Assays:
GABA transaminase = target: T1, GABA transaminase (Rattus norvegicus, UniProt P50554); assay: enzyme assay; format: biochemical; details: 1.0E-06 M
T1 construct: rat brain; from tissue; host or cells: rat brain

Kv7.1 = target: T2, Kv7.1 (Homo sapiens, UniProt P51787); assay: Ion channel selectivity patch clamp; format: cell-based; details: Voltage (+20 mV)
T2 construct: expressed in transfected cells

PCP = format: binding, rat; details: 1.0E-06 M
MC3 (h) = target: T3, MC3 (h) (Homo sapiens, UniProt P41968); format: binding
T3 construct: host or cells: CHO cells
T3 sequence (P41968 whole entry): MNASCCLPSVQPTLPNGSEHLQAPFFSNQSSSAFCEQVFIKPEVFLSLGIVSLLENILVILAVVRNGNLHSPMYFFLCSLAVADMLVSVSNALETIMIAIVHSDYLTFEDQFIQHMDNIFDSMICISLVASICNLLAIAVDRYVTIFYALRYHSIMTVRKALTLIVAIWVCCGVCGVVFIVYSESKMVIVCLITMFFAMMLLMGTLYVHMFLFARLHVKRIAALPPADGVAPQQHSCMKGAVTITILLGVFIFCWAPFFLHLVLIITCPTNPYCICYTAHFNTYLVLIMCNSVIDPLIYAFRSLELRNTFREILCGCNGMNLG

α1 (non-selective) = format: binding, rat; details: 1.0E-06 M
TNF-α (h) = format: binding, human; details: 1.0E-06 M
human TRPC5 (hTRPC5) = target: T4, human TRPC5 (hTRPC5) (Homo sapiens, UniProt Q9UL62); assay: Fluorometric calcium influx assay; format: cell-based; details: indicator-assisted calcium influx, 1 pM to 1 μM, n = 8
T4 construct: The cDNAs for various full-length ion channels were subcloned into pcDNA5/TO; expressed in transfected cells
T4 sequence (Q9UL62 whole entry): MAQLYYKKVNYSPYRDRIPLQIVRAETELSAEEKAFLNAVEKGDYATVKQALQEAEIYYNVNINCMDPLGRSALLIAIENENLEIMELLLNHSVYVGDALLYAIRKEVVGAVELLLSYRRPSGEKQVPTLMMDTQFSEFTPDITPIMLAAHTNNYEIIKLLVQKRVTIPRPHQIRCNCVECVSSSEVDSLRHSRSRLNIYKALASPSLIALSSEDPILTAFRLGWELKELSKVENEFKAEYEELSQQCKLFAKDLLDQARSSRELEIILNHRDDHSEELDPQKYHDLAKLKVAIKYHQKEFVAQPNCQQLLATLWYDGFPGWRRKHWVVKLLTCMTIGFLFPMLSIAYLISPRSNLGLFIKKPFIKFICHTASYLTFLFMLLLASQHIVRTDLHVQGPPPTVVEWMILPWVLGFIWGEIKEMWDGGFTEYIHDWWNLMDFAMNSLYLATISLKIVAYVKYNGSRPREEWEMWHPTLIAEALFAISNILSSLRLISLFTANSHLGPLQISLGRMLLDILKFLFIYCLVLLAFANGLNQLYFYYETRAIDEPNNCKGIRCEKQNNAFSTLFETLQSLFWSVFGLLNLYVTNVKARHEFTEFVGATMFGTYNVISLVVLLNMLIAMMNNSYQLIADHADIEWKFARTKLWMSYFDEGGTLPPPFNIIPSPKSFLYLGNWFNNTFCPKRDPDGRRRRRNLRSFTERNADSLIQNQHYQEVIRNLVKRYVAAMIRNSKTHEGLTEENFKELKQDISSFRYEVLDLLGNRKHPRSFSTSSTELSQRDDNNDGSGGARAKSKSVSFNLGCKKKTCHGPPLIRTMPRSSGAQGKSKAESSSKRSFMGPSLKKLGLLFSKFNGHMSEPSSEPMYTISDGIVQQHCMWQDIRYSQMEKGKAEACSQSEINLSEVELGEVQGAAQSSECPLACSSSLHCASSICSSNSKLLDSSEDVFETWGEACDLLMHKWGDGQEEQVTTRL

[1] = target: carbonic anhydrase II (h) (Homo sapiens, UniProt P00918); assay: biochemical; details: 1.0E-06 M
H4 (h) = target: T5, H4 (h) (Homo sapiens, UniProt Q9H3N8); format: binding; details: 1.0E-06 M
T5 construct: host or cells: HEK-293 cells
T5 sequence (Q9H3N8 whole entry): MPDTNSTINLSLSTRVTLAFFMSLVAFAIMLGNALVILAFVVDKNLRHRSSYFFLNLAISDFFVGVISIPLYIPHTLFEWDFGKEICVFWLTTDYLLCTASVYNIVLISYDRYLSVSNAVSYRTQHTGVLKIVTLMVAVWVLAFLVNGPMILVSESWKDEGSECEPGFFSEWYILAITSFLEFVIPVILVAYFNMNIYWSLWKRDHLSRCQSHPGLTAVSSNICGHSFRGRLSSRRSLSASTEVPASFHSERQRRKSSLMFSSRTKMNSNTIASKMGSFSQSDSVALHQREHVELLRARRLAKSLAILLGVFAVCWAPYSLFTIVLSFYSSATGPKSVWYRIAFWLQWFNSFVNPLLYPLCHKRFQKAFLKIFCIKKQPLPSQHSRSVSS

ZAP70 kinase (h) = target: T6, ZAP70 kinase (h) (Homo sapiens, UniProt P43403); assay: biochemical; details: 1.0E-06 M
T6 construct: host or cells: insect cells
T6 sequence (P43403 1-619): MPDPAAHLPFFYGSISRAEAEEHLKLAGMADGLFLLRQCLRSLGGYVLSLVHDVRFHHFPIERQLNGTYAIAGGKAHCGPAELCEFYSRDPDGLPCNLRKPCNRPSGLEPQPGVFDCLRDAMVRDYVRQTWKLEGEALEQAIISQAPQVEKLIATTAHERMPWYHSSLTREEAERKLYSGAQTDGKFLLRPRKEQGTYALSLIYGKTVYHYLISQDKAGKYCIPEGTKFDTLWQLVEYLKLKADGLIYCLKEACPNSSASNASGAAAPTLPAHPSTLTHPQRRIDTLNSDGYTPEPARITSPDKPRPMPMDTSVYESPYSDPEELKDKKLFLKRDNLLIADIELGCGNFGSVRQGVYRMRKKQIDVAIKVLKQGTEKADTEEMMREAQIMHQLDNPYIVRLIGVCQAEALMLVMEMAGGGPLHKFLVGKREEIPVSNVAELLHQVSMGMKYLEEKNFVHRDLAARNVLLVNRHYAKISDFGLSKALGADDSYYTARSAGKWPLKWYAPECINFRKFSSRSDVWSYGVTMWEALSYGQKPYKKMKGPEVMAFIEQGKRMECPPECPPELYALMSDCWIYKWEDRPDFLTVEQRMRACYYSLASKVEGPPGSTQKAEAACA

A2A (h) = A2A (h) (Homo sapiens, UniProt P29274); details: 1.0E-06 M
A2A (h), sequence (P29274 whole entry): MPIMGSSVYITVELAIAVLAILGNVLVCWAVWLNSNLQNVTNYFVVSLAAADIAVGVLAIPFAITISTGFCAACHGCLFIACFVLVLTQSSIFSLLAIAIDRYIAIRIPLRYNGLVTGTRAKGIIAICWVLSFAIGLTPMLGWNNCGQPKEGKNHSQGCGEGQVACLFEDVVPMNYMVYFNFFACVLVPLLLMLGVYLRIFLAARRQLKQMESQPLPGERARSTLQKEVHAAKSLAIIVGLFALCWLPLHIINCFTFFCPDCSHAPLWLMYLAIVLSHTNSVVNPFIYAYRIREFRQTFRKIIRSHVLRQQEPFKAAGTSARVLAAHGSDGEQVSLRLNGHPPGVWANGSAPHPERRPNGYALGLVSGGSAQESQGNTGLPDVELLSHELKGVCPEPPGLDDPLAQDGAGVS

Abl kinase (h) = Abl kinase (h) (Homo sapiens, UniProt P00519); assay: biochemical; details: 1.0E-06 M
Abl kinase (h), sequence (P00519 whole entry): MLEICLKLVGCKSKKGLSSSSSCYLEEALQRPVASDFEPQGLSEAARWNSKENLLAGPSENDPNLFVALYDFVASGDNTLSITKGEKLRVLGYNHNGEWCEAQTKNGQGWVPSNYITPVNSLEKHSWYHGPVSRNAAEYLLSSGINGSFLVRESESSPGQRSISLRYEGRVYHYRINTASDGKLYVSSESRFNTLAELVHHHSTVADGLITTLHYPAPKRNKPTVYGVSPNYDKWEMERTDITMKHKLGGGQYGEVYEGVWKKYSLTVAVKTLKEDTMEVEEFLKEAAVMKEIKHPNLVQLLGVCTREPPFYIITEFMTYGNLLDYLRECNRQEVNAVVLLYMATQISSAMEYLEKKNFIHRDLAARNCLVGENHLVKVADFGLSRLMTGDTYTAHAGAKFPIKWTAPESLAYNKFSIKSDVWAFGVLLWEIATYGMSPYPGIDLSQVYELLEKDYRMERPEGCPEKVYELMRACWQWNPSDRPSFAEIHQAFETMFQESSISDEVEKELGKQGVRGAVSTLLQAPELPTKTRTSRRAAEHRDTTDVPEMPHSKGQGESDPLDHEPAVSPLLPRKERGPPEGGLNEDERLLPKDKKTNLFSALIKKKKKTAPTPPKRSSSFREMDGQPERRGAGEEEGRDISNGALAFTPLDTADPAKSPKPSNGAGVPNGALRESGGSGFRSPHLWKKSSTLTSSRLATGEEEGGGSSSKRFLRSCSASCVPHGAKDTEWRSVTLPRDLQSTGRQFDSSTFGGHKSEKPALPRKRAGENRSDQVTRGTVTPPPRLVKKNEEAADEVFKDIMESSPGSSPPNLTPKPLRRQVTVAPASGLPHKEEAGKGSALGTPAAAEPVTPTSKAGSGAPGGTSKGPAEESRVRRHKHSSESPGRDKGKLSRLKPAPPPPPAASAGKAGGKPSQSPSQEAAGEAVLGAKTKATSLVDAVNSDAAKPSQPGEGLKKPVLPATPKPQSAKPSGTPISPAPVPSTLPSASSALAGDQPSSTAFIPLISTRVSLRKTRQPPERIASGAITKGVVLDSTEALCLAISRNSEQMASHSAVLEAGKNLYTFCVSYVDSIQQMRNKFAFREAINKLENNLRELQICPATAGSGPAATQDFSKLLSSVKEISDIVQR

M3 (h) = M3 (h) (Homo sapiens, UniProt P20309); assay: biochemical
M3 (h), sequence (P20309 whole entry): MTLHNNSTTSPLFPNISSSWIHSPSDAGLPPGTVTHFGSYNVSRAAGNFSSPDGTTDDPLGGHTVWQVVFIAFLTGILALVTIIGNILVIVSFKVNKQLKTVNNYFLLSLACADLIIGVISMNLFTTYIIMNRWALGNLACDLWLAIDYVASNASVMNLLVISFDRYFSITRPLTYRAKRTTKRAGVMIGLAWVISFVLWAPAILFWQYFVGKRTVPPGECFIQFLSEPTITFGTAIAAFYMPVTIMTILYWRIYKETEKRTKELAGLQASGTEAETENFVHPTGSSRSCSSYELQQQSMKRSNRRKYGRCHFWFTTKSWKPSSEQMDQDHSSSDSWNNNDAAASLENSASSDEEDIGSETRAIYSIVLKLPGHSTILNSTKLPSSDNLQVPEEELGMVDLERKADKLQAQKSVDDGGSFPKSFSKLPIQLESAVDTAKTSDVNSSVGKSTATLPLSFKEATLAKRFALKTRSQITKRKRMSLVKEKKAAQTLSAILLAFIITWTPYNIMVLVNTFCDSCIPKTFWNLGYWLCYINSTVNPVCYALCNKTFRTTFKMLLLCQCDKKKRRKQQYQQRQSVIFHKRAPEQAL

rolipram = format: binding, mouse; details: 1.0E-06 M
PPARγ (h) = target: T7, PPARγ (h) (Homo sapiens, UniProt P37231); format: binding
T7 construct: Cerep; host or cells: E. coli
T7 sequence (P37231 1-505): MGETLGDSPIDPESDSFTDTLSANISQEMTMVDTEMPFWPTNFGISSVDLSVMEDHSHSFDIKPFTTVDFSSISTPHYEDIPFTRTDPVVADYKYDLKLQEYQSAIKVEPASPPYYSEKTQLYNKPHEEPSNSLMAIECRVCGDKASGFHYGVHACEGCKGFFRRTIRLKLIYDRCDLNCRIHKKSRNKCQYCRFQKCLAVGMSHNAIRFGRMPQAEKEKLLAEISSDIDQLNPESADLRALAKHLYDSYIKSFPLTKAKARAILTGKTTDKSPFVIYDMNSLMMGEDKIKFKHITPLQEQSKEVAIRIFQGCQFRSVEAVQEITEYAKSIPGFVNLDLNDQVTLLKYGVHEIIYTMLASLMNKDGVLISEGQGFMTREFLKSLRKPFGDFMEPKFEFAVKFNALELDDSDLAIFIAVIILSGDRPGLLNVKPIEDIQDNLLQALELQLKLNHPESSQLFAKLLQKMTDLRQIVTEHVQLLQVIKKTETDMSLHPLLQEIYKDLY

p38α kinase (h) = p38α kinase (h) (Homo sapiens, UniProt Q16539); assay: enzyme assay; format: biochemical; details: 1.0E-06 M
p38α kinase (h), sequence (Q16539 whole entry): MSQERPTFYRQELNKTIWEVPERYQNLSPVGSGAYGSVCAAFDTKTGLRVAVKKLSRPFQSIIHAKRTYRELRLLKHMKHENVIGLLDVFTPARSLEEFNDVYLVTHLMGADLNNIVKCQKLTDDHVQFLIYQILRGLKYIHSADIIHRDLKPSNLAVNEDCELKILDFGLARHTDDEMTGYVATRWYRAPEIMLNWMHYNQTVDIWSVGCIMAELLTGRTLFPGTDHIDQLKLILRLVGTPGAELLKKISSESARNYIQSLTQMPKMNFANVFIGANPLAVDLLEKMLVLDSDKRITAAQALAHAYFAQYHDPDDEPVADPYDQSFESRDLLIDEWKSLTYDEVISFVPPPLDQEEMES

[2] = Swiss Webster, mouse, iv, 1 mg/kg
[3] = Swiss Webster, mouse, po, 10 mg/kg
[4] = male, C57BL/6, mouse, iv, 1 mg/kg
[5] = male, C57BL/6, mouse, po, 10 mg/kg
[6] = 1.0E-06 M, read-out: % Inhibition 1st
[7] = 1.0E-06 M, read-out: % Inhibition 2nd

T1 sequence (P50554 28-500): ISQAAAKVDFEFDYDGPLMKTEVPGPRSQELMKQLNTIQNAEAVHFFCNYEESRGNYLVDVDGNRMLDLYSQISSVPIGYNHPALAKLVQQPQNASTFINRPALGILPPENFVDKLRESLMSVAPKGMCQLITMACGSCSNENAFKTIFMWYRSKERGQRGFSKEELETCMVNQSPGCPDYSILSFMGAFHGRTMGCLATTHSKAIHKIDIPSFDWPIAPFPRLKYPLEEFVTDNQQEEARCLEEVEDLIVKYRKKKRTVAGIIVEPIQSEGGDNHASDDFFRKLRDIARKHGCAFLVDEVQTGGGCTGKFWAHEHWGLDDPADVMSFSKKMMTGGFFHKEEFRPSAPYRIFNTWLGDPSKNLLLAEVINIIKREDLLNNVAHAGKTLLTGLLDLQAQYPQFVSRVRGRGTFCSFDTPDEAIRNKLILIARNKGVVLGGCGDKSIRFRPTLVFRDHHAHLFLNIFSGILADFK

Cn1c(=O)n(CCCO)c(=O)c2c1nc(Oc1cccc(Cl)c1)n2Cc1ccc(Cl)cc1 [HC-070]
inhibition at 1 µM (GABA transaminase; read-out: % Inhibition 1st): -33.1% | inhibition at 1 µM (GABA transaminase; read-out: % Inhibition Mean): -34.6% | IC50 (Kv7.1): > 1900 nM | Vd (in vivo; [2]): 2.2 L/kg | clearance (in vivo; [2]): 11 mL/min/kg | half-life (in vivo; [2]): 3.6 h | Tmax (in vivo; [3]): 1 h | half-life (in vivo; [3]): 2.7 h | Vd (in vivo; [4]): 1.5 L/kg | clearance (in vivo; [4]): 13 mL/min/kg | concentration at 2 h (in vivo; male, C57BL/6, mouse, iv, 1 mg/kg, CBR (concentration in brain)): 299 ± 11 nM | concentration at 2 h (in vivo; male, C57BL/6, mouse, iv, 1 mg/kg, CPL (concentration in plasma)): 339 ± 66 nM | Cmax (in vivo; [5]): 937 nM | Tmax (in vivo; [5]): 1 h | concentration at 2 h (in vivo; male, C57BL/6, mouse, po, 10 mg/kg, CBR (concentration in brain)): 525 ± 72 nM | concentration at 2 h (in vivo; male, C57BL/6, mouse, po, 10 mg/kg, CPL (concentration in plasma)): 583 ± 108 nM

Cn1c(=O)n(CCCO)c(=O)c2c1nc(Oc1cccc(OC(F)(F)F)c1)n2Cc1ccc(Cl)cc1 [HC-608]
% Inhibition 1st (PCP): -9% | % Inhibition 2nd (PCP): -0.1% | % Inhibition Mean (PCP): -4.6% | inhibition at 1 µM (MC3 (h); [6]): 14.4% | inhibition at 1 µM (MC3 (h); [7]): 15.3% | inhibition at 1 µM (MC3 (h); read-out: % Inhibition Mean): 14.8% | % Inhibition 1st (α1 (non-selective)): -2.8% | % Inhibition 2nd (α1 (non-selective)): 1.1% | % Inhibition Mean (α1 (non-selective)): -0.8% | % Inhibition 1st (TNF-α (h)): 8.8% | % Inhibition 2nd (TNF-α (h)): -8.6% | % Inhibition Mean (TNF-α (h)): 0.1% | IC50 (human TRPC5 (hTRPC5)): 6.2 ± 0.5 nM | inhibition at 1 µM ([1]; read-out: % Inhibition 1st): -0.9% | inhibition at 1 µM ([1]; read-out: % Inhibition 2nd): 0.2% | inhibition at 1 µM ([1]; read-out: % Inhibition Mean): -0.4% | inhibition at 1 µM (H4 (h); read-out: % Inhibition 1st): -13.6% | inhibition at 1 µM (H4 (h); read-out: % Inhibition 2nd): -1.9% | inhibition at 1 µM (H4 (h); read-out: % Inhibition Mean): -7.8% | inhibition at 1 µM (ZAP70 kinase (h); read-out: % Inhibition 1st): -1.6% | inhibition at 1 µM (ZAP70 kinase (h); read-out: % Inhibition 2nd): -3% | inhibition at 1 µM (ZAP70 kinase (h); read-out: % Inhibition Mean): -2.3% | % Inhibition 1st (A2A (h)): 20.8% | % Inhibition 2nd (A2A (h)): 31.1% | % Inhibition Mean (A2A (h)): 25.9% | inhibition at 1 µM (Abl kinase (h); read-out: % Inhibition 1st): 11.4% | inhibition at 1 µM (Abl kinase (h); read-out: % Inhibition 2nd): 10.2% | inhibition at 1 µM (Abl kinase (h); read-out: % Inhibition Mean): 10.8% | inhibition at 1 µM (M3 (h); read-out: % Inhibition 1st): -9% | inhibition at 1 µM (M3 (h); read-out: % Inhibition 2nd): -7.5% | inhibition at 1 µM (M3 (h); read-out: % Inhibition Mean): -8.2% | % Inhibition 1st (rolipram): -4.6% | % Inhibition 2nd (rolipram): 0.5% | % Inhibition Mean (rolipram): -2.1% | inhibition at 1 µM (PPARγ (h); [6]): 6.7% | inhibition at 1 µM (PPARγ (h); [7]): 16.2% | inhibition at 1 µM (PPARγ (h); read-out: % Inhibition Mean): 11.5% | % Inhibition 1st (p38α kinase (h)): -0.9% | % Inhibition 2nd (p38α kinase (h)): -1.2% | % Inhibition Mean (p38α kinase (h)): -1.1%

— publication PMC5791972 (PLoS ONE, 2018)
